From patent US20220054494A1, “METHODS FOR TREATING BLADDER AND URETHRA DYSFUNCTION AND DISEASE” (University of Pittsburgh - Of the Commonwealth System of …, priority 2019, published 2022) come the findings set out here.

What all share (format): in vivo, rat
Test [1] relates to aged rats. The experiment in a line: Voiding analysis in metabolic cages, aged rats. On the procedure:
Experimental design: Young (3 months of age) and aged (25 to 30 months of age) Fisher 344 rats were used in these experiments. Some of the aged Fisher 344 rats were treated with 8-AG (5 mg kg/day via drinking water) for 1 month.
Voiding analysis: Rats were placed in metabolic cages for 24 hr (once per week for the duration of the study). Voided urine was collected in cups attached to force displacement transducers (GRASS TECHNOLOGIES®, Warwick, R.I.) connected to a computer running WINDAQ™ data acquisition software (DATAQ™ Instruments Inc., Akron, Ohio). Data were averaged for 24 h, and voiding frequency, total voided volume, and volume per void were analyzed. Voiding frequency was calculated as the number of voiding events per hour during 24 h, and volume per void, which defines bladder capacity, was calculated as an average of the voids occurring during these periods.
Animals: Male and female Fisher 344 rats were employed (Charles River; Wilmington, Mass. and the NIA rodent colony). Some rats were young (3 months of age), some were aged (25-30 months of age), and others were aged and treated with oral 8-AG (5 mg/kg/day; 6 weeks). Under isoflurane anesthesia and using an aseptic technique, an incision was made into the lower abdomen and in the scapular area. Sterile PE50 tubing was threaded subcutaneously from the lower abdomen to the scapular area and connected to a one-channel vascular access button (Intech Laboratories, Plymouth Meeting, Pa.). In the abdomen, the tubing was inserted into the bladder and secured with a small purse-string suture. The incisions were closed, and the animals were allowed to recover for 7-10 days before further experimentation. Animals were divided into three groups. A control group of aged rats received daily infusions with 10 μM DEA-NONOate (SIGMA-ALDRICH®, St. Louis, Mo.) in sterile 0.9% saline. A second group received 100 μM 8-AG plus 10 μM DEA-NONOate in 0.9% saline, and a third group received 5 μM forodesine (SIGMA-ALDRICH®) plus 10 μM DEA-NONOate in 0.9% saline. Bladders were instilled via a catheter tether kit (Instech Laboratories) connected to a syringe pump for continuous infusion (rate 200 μl/min; 30 minutes/daily) for 3-6 weeks. The Institutional Animal Care and Use Committee approved all procedures. The investigation conforms to the Guide for the Care and Use of Laboratory Animals published by the US National Institutes of Health (NIH Publication No. 85-23, revised 1996).
Protocol 1: Young, aged, and 8-AG-treated aged rats were placed in metabolism cages for 24 hr once per week. The light cycle was from 7:00 AM to 7:00 PM, and food and water were provided ad libitum. Voided urine was collected in cups attached to force displacement transducers (GRASS TECHNOLOGIES®, Warwick, R.I.) that were connected to a computer running Windaq data acquisition software (DATAQ® Instruments I2nc., Akron, Ohio). Data were averaged for 24 h and analyzed for 12-h periods during the day (7:00 AM-7:00 PM) and night (7:00 PM-7:00 AM). Voiding frequency, total voided volume, and volume per void were analyzed. Voiding frequency was calculated as the number of voiding events per hour during 24 h and during the 12-h day and 12-h night periods. Volume per void, which defines bladder capacity, was calculated as an average of the voids occurring during these periods.
Voiding Analysis: Young, aged, and 8-AG-treated aged rats were placed in metabolic cages (24 hr; once per week) for the duration of the study. The light cycle was from 7:00 AM to 7:00 PM, and food and water were provided ad libitum. Voided urine was collected in cups attached to force displacement transducers (Grass Technologies, Warwick, R.I.) connected to a computer (Windaq data acquisition software DATAQ Instruments Inc., Akron, Ohio). Data were averaged for 24 h and analyzed for 12-h periods during the day (7:00 AM-7:00 PM) and night (7:00 PM-7:00 AM). Voiding frequency, total voided volume, and volume per void were analyzed. […]

In test [2] the test system is AVP receptor V1a. In words: Western immunoblotting, kidney V1a vasopressin receptor. The settings on record: aged Fisher 344 rats; 8-AG 5 mg kg/day via drinking water, 1 month. On the procedure:
(§1) Western immunoblotting and transmission electron microscopy: Following these testing paradigms, rats were deeply anesthetized, bladders were removed, and one half of each bladder (using the smooth muscle layer) was homogenized using Lysing Matrix D in a FASTPREP-24™ instrument (MP BIOMEDICALS™, Solon, Ohio) in HBSS (5 mM KCl, 0.3 mM KH2PO4, 138 mM NaCl, 4 mM NaHO3, 0.3 mM Na2HCO3, 0.3 mM Na2HPO4, 5.6 mM glucose and 10 mM Hepes, pH 7.4) containing complete protease inhibitor cocktail (1 tablet/10 ml, ROCHE™, Indianapolis, Ind.) and phosphatase inhibitor cocktail (SIGMA®, 1:100). Whole rat kidney was also homogenized using the same procedure. After centrifugation (13000 rpm; 15 min at 4° C.), the membrane protein fraction was prepared by suspending the membrane pellets in lysis buffer containing 0.3 M NaCl, 50 mM Tris-HCl (pH 7.6), 0.5% Triton X-100, and the same concentration of protease inhibitors as above. […] The protein concentrations of the combined supernatants were determined using the PIERCE™ BCA protein assay (THERMO SCIENTIFIC™, Rockford, Ill.). […] As a loading control, total protein per sample was determined using BIO-RAD™ Stain Free SDS-PAGE gel technology. UV-activated protein fluorescence was imaged on a CHEMIDOC™ MP (BIO-RAD™). […] The volume (intensity) of each protein species was determined and normalized to total protein using Image Lab software (BIO-RAD™).

The subject of test [3] is AVP receptor V2. The experiment in a line: Western immunoblotting, kidney V2 vasopressin receptor. The settings on record: aged Fisher 344 rats; 8-AG 5 mg kg/day via drinking water, 1 month. On the procedure:
as §1
For orientation: In western blotting, separated proteins are transferred to a membrane and probed.

[4] abbreviates: aged Fischer 344 rats, oral 8-AG 5 mg/kg/day, 6 weeks.
The mark [5] stands for this setting: aged Fisher 344 rats, 8-AG 5 mg kg/day via drinking water, 1 month.

“Also recorded” adds a separate entry of the source.

In the case of `Nc1nc2[nH]c(N)nc2c(=O)[nH]1` [8-AG, 8-Aminoguanine], in test [1] (setting [4]), the voided volume result is recorded as “attenuates” and the voiding frequency entry is “attenuates”. For the same compound, in test [1] (setting [5]), the “bladder abnormalities (voided volume, voiding efficiency, voiding frequency)” value is recorded as “reversed”; the voided volume result was “attenuates”; the voiding frequency result is “attenuates”. The voiding frequency entry in test [1] (aged rats, intravesical 100 μM 8-AG plus 10 μM DEA-NONOate, daily infusion 3-6 weeks, vs control aged rats) is recorded as “decreased; also recorded: attenuates”. The “V1a vasopressin receptor in kidney” value in test [2] is given as “restored to a younger state; also recorded: restored to levels similar to the younger state”. The “V2 vasopressin receptor in kidney” value in test [3] is listed as “restored to a younger state; also recorded: restored to levels similar to the younger state”.
